Data set [1] deals with superoxide anion radical (O2.-) in endometrial stromal cells. The data set is described as follows: Determination of superoxide anion (O2.-) content. The note with it: 18 h. It counts as cell-based, human. Here is the method: Superoxide anion (O2.^−) assay kit was purchased from Nanjing Jiancheng Bioengineering Insitute; Hydroxyl free radical assay kit was purchased from Shanghai Xinyu Biological Technology Co., Ltd., Hydrogen Peroxide Assay Kit was purchased from Beyotime Biotechnology Research Institute. The cells were cultured in 96-well cell culture plates for 24 h after the cells adhered to the plate. Three different concentrations PQQ (30 nm, 300 nm and 3 um) were added to the culture medium respectively. After additional 18 h incubation, the culture medium was discarded, and fresh culture medium supplemented with NBT (a final concentration of 1 mg/mL) was added to the cells. The cells were continually cultured for another 1 h at 37° C. The cells were fixed with 100% methanol, and naturally dried. 120 μL KOH (2 mol/L) and 140 μL DMSO were added to the cells. The optical density at wavelength 570 nm was measured.

Data set [2] relates to hydroxyl radical (.OH) in endometrial stromal cells. The data set is described as follows: Determination of hydroxyl radical (.OH) content. In kind it is cell-based, human. To be noted: 18 h. Here is the method: Superoxide anion (O2.^−) assay kit was purchased from Nanjing Jiancheng Bioengineering Insitute; Hydroxyl free radical assay kit was purchased from Shanghai Xinyu Biological Technology Co., Ltd., Hydrogen Peroxide Assay Kit was purchased from Beyotime Biotechnology Research Institute. The cells were seeded in 6-well plate at 8×10^5 cells/well, and incubated for 24 h after the cells adhered to the plate. Three different concentrations of PQQ (30 nm, 300 nm and 3 μm) were added to the cultures respectively. The cells were incubated for additional 18 h. At the end of the treatment, the cultured cells were collected. 50 μL samples were added to each cell, followed by addition of 50 μL of antibody working solution. The sample was shaken to achieve a uniform mixture, and reacted at 37° C. for 30 min. The plates were then washed for four to five times. 100 μL of enzyme marker was added to each well. The resulting mixture was allowed to react for 20 min at 37° C. Coloration method: 50 μL of buffer liquid and 50 μL of substrate solution were added to each well in sequence. The mixture solution was gently shaken to achieve a uniform mixing, and coloured for 10 min in the dark at 37° C. […] The optical density at wavelength 560 nm was measured with microplate reader (Read the data in 20 min).

Data set [3] concerns endometrial stromal cells. The data set can be described thus: Scratch test (scratch healing, cell migration). It counts as cell-based, human. The note with it: for scratch healing: P<0.05. As to the method:
Before the cells were plated, horizontal lines were scratched on the back of 24-well plate using a blade with the guide of a ruler. For each well, three evenly distributed lines which horizontally crossed the well were scratched. Two days after transfection, the cell fusion rate reached 90%. The wound were created by scratching on the cell layer with micropipette tip in a direction perpendicular to the lines on the back of the plate with the aid of ruler. During the operation, the micropipette tip should be kept perpendicular to the plate, and not tilt to one side. The cells were washed for three times with PBS to remove the exfoliated cells after being scratched, and 1640 culture medium supplemented with 2% FBS was added to the cells. The cells were cultured in an incubator at 37° C., in an air atmosphere containing 5% CO2. The cells were photographed in the same field of view at each indicated time point.

Data set [4] deals with hydrogen peroxide (H2O2) in endometrial stromal cells. The data set is described as follows: Determination of hydrogen peroxide (H2O2) content. In kind it is cell-based, human. The note with it: 18 h. Here is the method:
Superoxide anion (O2.^−) assay kit was purchased from Nanjing Jiancheng Bioengineering Insitute; Hydroxyl free radical assay kit was purchased from Shanghai Xinyu Biological Technology Co., Ltd., Hydrogen Peroxide Assay Kit was purchased from Beyotime Biotechnology Research Institute. The cells were seeded in 6-well cell culture plates and incubated for 24 h after the cells adhered to the plate. Three different concentrations PQQ (30 nm, 300 nm and 3 μm) were added to the cultures respectively. After additional 18 h incubation, the cells were lysed using the lysis buffer contained in reagent kit, centrifuged at 12000×g for 5 min at 4° C. 50 μL of sample supernatant was mixed with 100 μL detection solution, rested 30 min at room temperature. The optical density at wavelength 560 nm was measured.

The conditions of data set [5]: cited from earlier work.
In data set [6] the test system is ectopic endometrial stromal cells. The data set is described as follows: Cell cycle by propidium iodide flow cytometry. It counts as cell-based, human. The note with it: 24 h, p<0.01. Here is the method:
Endometrial tissues were surgically isolated from patients with chocolate cyst of ovary, washed 2 to 3 times with PBS supplemented with antibiotics in ultra-clean cabinet, and cut into tiny pieces (about 1 mm^3 in size) with aseptic scissors. The tissues were digested with 1 mg/ml collagenase type I for 30 to 90 min at 37° C., and continually digested with Dnase I (final concentration of 15 U/ml, 2% Dnase I) for another 30 min. The digested tissues were filtered thorough 60-mesh stainless steel filter cell strainer to remove the undigested cell tissues, and were further filtered with 200- or 400-mesh strainer. The filtered solution was centrifuged at 1000 rpm for 5 min. After removing the supernatants, the cells were washed once with culture medium compounded by DMEM/F12 (1:1 v/v) and 10% fetal bovine serum, re-suspended in the culture medium, and seeded in 6-well tissue culture plate or T25 tissue culture flasks with an appropriate density. After 24 hours incubation, the culture medium was changed to remove the non-adherent blood cells, endothelial cells, macrophages and other miscellaneous cells. […] Vimentin which expresses specifically in stromal cells was detected by immuno-fluorescence to measure the cell purity. […] Cell cycle was determined with flow cytometry. […] Cell apotosis was determined by flow cytometry.
On the technique in general: Flow cytometry measures light scatter and fluorescence of single cells or particles in a stream.

The structures appear in SMILES notation.

As for `O=C(O)c1cc(C(=O)O)c2c(n1)C(=O)C(=O)c1cc(C(=O)O)[nH]c1-2` [PQQ, pyrroloquinoline quinone], the “relative content of superoxide anion radical (O2.-)” value in data set [1] (PQQ 300 nM) and in data set [1] (PQQ 3 uM) was “significantly declined” in each case. Moreover, the “relative content of hydroxyl radical (.OH)” value in data set [2] (PQQ 300 nM) and in data set [2] (PQQ 3 uM) was “significantly declined” each time. Moreover, the “migration of endometrial cells (scratch healing)” value in data set [3] (PQQ 30 nM, P>0.05) is “partially restrain the migration of the endometrial cells”. Further, the scratch healing result in data set [3] (PQQ 300 nM) and in data set [3] (PQQ 3 μM) was “significantly inhibit scratch healing” in each case. Further, the “scratch coverage rate lower than in the control group” value in data set [3] (PQQ 3 μM, 72 h) stood at 42%. The “relative content of hydrogen peroxide (H2O2)” value in data set [4] (PQQ 300 nM) and in data set [4] (PQQ 3 uM) was “significantly declined” each time. Besides, the adverse reactions result in data set [5] (mice fed 100 mg/kg body weight/day for 14 consecutive days) is on record as “did not show any adverse reactions”. For the same compound, the half lethal dose in data set [5] (mice) is given as 1000-2000 mg/kg body weight/day. The cell cycle result in data set [6] (PQQ 3 um) and in data set [6] (PQQ 300 nm) was “arrest the cell in G0/G1 phase” in each case.

These data come from patent publication US10959998B2, “Pharmaceutical use and pharmaceutical composition of pyrroloquinoline quinine, its derivatives and/or its salts” (priority 2015, dated 2021).
